Measured values as given in PMC12014842, “An ^211At-labeled alpha-melanocyte stimulating hormone peptide analog for targeted alpha therapy of metastatic melanoma” (European Journal of Nuclear Medicine and Molecular Imaging, 2025).
Read-outs that look alike come from different tables or passages of the source. Positions of bridges follow the written chain, without caps; N, C: chain ends. Non-standard residues stand in square brackets, D forms with d. Residues, ends and D or L forms follow the SMILES beside them. *: point of attachment. DOTA = O=C(O)CN1CCN(CC(=O)O)CCN(CC(=O)*)CCN(CC(=O)O)CC1; X1 = O=C(Cn1cc(COCC(CO)(CO)CI)nn1)*; Nle = CCCC[C@H](N)C(=O)O

Columns and labels:
[1] = target: T1, MC1R (B16F10 melanoma cells) (Mus musculus, UniProt Q01727); assay: Receptor binding assay: competitive inhibition of [^125I]I-Tyr^2-NDP-MSH bound to B16F10 melanoma cells; settings: competition with [^125I]I-Tyr^2-NDP-MSH, 37 °C, 1 h, brackets = 95% confidence interval
T1 construct: endogenous in cells; host or cells: B16F10 melanoma cells (Cell Resource Center for Biomedical Research, Tohoku University)
Method: B16F10 cells were obtained from the Cell Resource Center for Biomedical Research (Institute of Development, Aging and Cancer Tohoku University). B16F10 cells were cultivated in RPMI 1640 medium (Nacalai Tesque) supplemented with 10% fetal bovine serum (Thermo Scientific) in a humidified atmosphere containing 5% carbon dioxide at 37 °C. B16F10 cells (5 × 10^5 cells/well) were seeded in a 24-well poly-D-lysine coated plate (Corning) overnight. After the growth medium was removed, a reaction buffer containing 4.8 mg/mL HEPES, 100 U/mL penicillin, 1 mg/mL streptomycin and 2 mg/mL bovine serum albumin was added. Approximately 30,000 counts per minute of [^125I]I-Tyr^2-NDP-MSH and 0.5 pM to 5 µM of the peptides (NpG-GGN1a–NpG-GGN4a and In-DOTA-GGNle-CycMSHhex) were added to each well. The reaction mixture was incubated at 37 °C for 1 h. After incubation, the binding medium was removed, and the cells were rinsed twice with ice-cold phosphate-buffered saline (PBS). The cells were harvested using 0.25% trypsin solution, and the radioactivity was determined using an auto-well gamma counter. Ki values were calculated using GraphPad Prism 8.4.3 (GraphPad Software).

[2] = Log D7.4 measurements (1-octanol / phosphate buffer); format: physicochemical; settings: 1-octanol / 25 mM phosphate buffer pH 7.4; mean ± SD
Method: This experiment was performed according to a previously reported procedure with slight modifications. In brief, an aliquot of radiolabeled GGNle-CycMSHhex analogs (50 kBq/5 µL) was mixed with equal amounts (1.5 mL) of 1-octanol and 25 mM phosphate buffer (pH 7.4). The mixture was vortexed for 1 min and then allowed to stand for 1 min. After repeating the procedure five times, the mixture was centrifuged at 1,500 g for 10 min. Aliquots of 0.5 mL were taken from each phase and their radioactivity was measured with an auto-well γ counter (Wizard 3, PerkinElmer). The partition coefficient was determined by calculating the ratio of counts per minute in the 1-octanol phase to that in the buffer phase and expressed as a common logarithm. The results represent the mean ± SD for each compound.

[3] = Biodistribution in tumor-bearing mice; format: in vivo; settings: C57BL/6, mouse, iv, total radioactivity, 3 h after i.v. injection, Suppl. Table 1, mean ± SD, n = 4; for tissue uptake dose at 3 h: 7.4 kBq
Method: The animal experiments were conducted according to a protocol reviewed and approved by the Chiba University Animal Care Committee (Permit No. 4–183). Five-week-old C57BL/6 mice were subcutaneously xenografted in their right hind legs by injecting B16F10 cells (1.0 × 10^6 cells) suspended in Matrigel (BD Biosciences). When the tumor diameter achieved approximately 10 mm, the mice were subjected to biodistribution studies. Groups of four mice were sacrificed at each postinjection time point. A solution of each radiohalogenated GGNle-CycMSHhex analog or [^111In]In-DOTA-GGNle-CycMSHhex (7.4 kBq/100 µL) was injected into the tumor-bearing mice via the tail vein, and the mice were sacrificed at 3 h postinjection. A solution of [^125I]NpG-GGN4b (7.4 kBq) or [^211At]NpG-GGN4c (40 or 100 kBq) was also injected, and the mice were sacrificed at […] postinjection. Injected radioactivity of [^211At]NpG-GGN4c was 40 kBq for 1 and 3 h postinjection groups and 100 kBq for 24 postinjection group. Blocking studies were performed by co-injection of NDP-MSH (10 µg per mouse) simultaneously with [^125I]NpG-GGN4b (7.4 kBq) or [^211At]NpG-GGN4c (40 kBq), and the mice were sacrificed at 3 h postinjection. The organs of interest were removed, weighed, and radioactivity was estimated using an auto-well gamma counter.

T1 sequence (Q01727 whole entry): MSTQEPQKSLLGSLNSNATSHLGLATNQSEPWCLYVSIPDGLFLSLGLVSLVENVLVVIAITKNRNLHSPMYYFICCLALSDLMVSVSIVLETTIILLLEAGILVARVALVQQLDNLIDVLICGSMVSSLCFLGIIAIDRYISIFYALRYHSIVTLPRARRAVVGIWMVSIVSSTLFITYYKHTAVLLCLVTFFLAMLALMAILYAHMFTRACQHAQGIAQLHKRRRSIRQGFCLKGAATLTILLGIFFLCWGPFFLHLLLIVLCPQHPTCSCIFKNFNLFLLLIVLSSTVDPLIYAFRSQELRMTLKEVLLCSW

CCCC[C@H](NC(=O)CNC(=O)CNC(=O)Cn1cc(COCC(CO)(CO)CI)nn1)C(=O)N[C@H]1CC(=O)NCCCC[C@@H](C(N)=O)NC(=O)[C@H](Cc2c[nH]c3ccccc23)NC(=O)[C@H](CCCNC(=N)N)NC(=O)[C@@H](Cc2ccccc2)NC(=O)[C@H](Cc2c[nH]cn2)NC1=O [NpG-GGN1a] (X1-GG[Nle]DH[dF]RWK-NH2; lactam 4-9)
Ki [1]: 2.81 nM

CCCC[C@H](NC(=O)CNC(=O)CNC(=O)[C@@H](CCC(=O)O)NC(=O)Cn1cc(COCC(CO)(CO)CI)nn1)C(=O)N[C@H]1CC(=O)NCCCC[C@@H](C(N)=O)NC(=O)[C@H](Cc2c[nH]c3ccccc23)NC(=O)[C@H](CCCNC(=N)N)NC(=O)[C@@H](Cc2ccccc2)NC(=O)[C@H](Cc2c[nH]cn2)NC1=O [NpG-GGN2a] (X1-[dE]GG[Nle]DH[dF]RWK-NH2; lactam 5-10)
Ki [1]: 3.24 nM

CCCC[C@H](NC(=O)CNC(=O)CNC(=O)[C@@H](CCC(=O)O)NC(=O)[C@@H](CCC(=O)O)NC(=O)Cn1cc(COCC(CO)(CO)CI)nn1)C(=O)N[C@H]1CC(=O)NCCCC[C@@H](C(N)=O)NC(=O)[C@H](Cc2c[nH]c3ccccc23)NC(=O)[C@H](CCCNC(=N)N)NC(=O)[C@@H](Cc2ccccc2)NC(=O)[C@H](Cc2c[nH]cn2)NC1=O [NpG-GGN3a] (X1-[dE][dE]GG[Nle]DH[dF]RWK-NH2; lactam 6-11)
Ki [1]: 14.9 nM

CCCC[C@H](NC(=O)CNC(=O)CNC(=O)[C@@H](CCCNC(=N)N)NC(=O)[C@@H](CCC(=O)O)NC(=O)Cn1cc(COCC(CO)(CO)CI)nn1)C(=O)N[C@H]1CC(=O)NCCCC[C@@H](C(N)=O)NC(=O)[C@H](Cc2c[nH]c3ccccc23)NC(=O)[C@H](CCCNC(=N)N)NC(=O)[C@@H](Cc2ccccc2)NC(=O)[C@H](Cc2c[nH]cn2)NC1=O [NpG-GGN4a] (X1-[dE][dR]GG[Nle]DH[dF]RWK-NH2; lactam 6-11)
Ki [1]: 1.37 nM

CCCC[C@H](NC(=O)CNC(=O)CNC(=O)CN1CCN(CC(=O)O)CCN(CC(=O)O)CCN(CC(=O)O)CC1)C(=O)N[C@H]1CC(=O)NCCCC[C@@H](C(N)=O)NC(=O)[C@H](Cc2c[nH]c3ccccc23)NC(=O)[C@H](CCCNC(=N)N)NC(=O)[C@@H](Cc2ccccc2)NC(=O)[C@H](Cc2c[nH]cn2)NC1=O [[^111In]In-DOTA-GGNle-CycMSHhex, metal not drawn] ({DOTA}-GG[Nle]DH[dF]RWK-NH2; lactam 4-9)
logD [2]: -3.45 ± 0.17
tissue uptake dose at 3 h ([3]; intestine, read-out: Biodistribution of radioactivity, Intestine): 0.6 ± 0.15 %ID
tissue uptake dose at 3 h ([3]; stomach, read-out: Biodistribution of radioactivity, Stomach): 0.2 ± 0.04 %ID
tissue uptake dose at 3 h ([3]; thyroid, read-out: Biodistribution of radioactivity, Thyroid): 0.01 %ID
tissue uptake at 3 h ([3]; tumor, 7.4 kBq/100 µL): 16.5 ± 1.89 %ID/g
